Each structure is given as a SMILES string.

T2 sequence (P01116 1-169 isoform P01116-2 G12D): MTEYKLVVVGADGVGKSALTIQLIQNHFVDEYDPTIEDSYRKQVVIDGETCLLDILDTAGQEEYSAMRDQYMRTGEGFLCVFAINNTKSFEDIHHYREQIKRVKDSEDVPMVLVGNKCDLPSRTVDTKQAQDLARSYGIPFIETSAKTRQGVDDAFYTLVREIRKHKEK

Tested on in the first data set: not listed separately
The data set can be described thus: in vitro. The settings on record: microsomes, pH 7.4.
Experimental: The metabolic stability of a test compound is assayed at 37° C. using pooled liver microsomes (mouse or human liver microsomes). An aliquot of 10 μL of 50 μM test compound is mixed with 490 μL of 0.611 mg/mL liver microsomes, then 50 μL of the mixtures are dispensed to the 96 well tubes and warmed at 37° C. for 10 minutes. The reactions are initiated by adding 50 μL of the pre-warmed NADPH regeneration system solution (add 1.2 μL solution, 240 μl solution B, mix with 10.56 ml KPBS) and then incubated at 37° C. The final incubation solution contains 100 mM potassium phosphate (pH 7.4), 1.3 mM NADP+, 3.3 mM glucose 6-phosphate, 0.4 Unit/mL of glucose 6-phosphate dehydrogenase, 3.3 mM magnesium chloride, 0.3 mg/mL liver microsomes and 0.5 μM test article. After 0, 15, 30 and 60 minutes in a shaking incubator, the reactions are terminated by adding 100 μL of acetonitrile containing 200 nM buspirone as an internal standard. All incubations are conducted in duplicate. […] Samples are then centrifuged at 3500 rpm for 10 minutes (4° C.) using Sorvall Legend XRT Centrifuge (Thermo Scientific, GE). Supernatants (40 μL) are transferred into clean 96-deep well plates. Each well is added with 160 μL of ultrapure water (Milli-Q, Millipore Corporation) with 0.1% (v/v) formic acid (Fisher Chemical), mixed thoroughly and subjected to LC/MS/MS analysis in MRM positive ionization mode.
All the samples are measured using a mass spectrometer (QTrap 5500 quadrupole/ion trap) coupled with a Shimadzu HPLC system. The HPLC system consisted of a Shimadzu series degasser, binary quaternary gradient pumps, column heater coupled to an autosampler, and a Phenomenex Gemini-NX, C18, 3.0 μm or Phenomenex Lunar, C8, 5.0 μM HPLC column (Phenomenex, Torrance, CA), and eluted with a mobile phase gradient consisting of Solution A (0.1% formic acid water) and Solution B (0.1% formic acid acetonitrile). The column temperature is maintained at 40° C. All the analytes are detected with positive-mode electrospray ionization (ES+).
The half-life for the metabolic degradation of the test compound is calculated by plotting the time-course disappearance of the test compound during the incubation with liver microsomes. Each plot is fitted to a first-order equation for the elimination of the test compound (% remaining compound) versus time using non-linear regression (Equation 1).
where Ct is the mean relative substrate concentration at time t and C0 is the initial concentration (0.5 μM) at time 0. Note that the area ratio of the substrate peak to an internal standard peak is proportional to the analyte concentration and is used for regression analysis to derive a value of k.
The half-life is the time needed for the level to fall by half in the phase considered. As for `N#Cc1c(N)sc2c(F)ccc(-c3ncc4c(N5CC6CCC(C5)N6C(=O)n5ccnc5C#N)nc(OC[C@@]56CCCN5C[C@H](F)C6)nc4c3F)c12` [Compound A165, 1-(3-(7-(2-amino-3-cyano-7-fluorobenzo[b]thiophen-4-yl)-8-fluoro-2-(((2R,7aS)-2-fluoro-tetrahydro-1H-pyrrolizin-7a(5H)-yl)methoxy)pyrido[4,3-d]pyrimidin-4-yl)-3,8-diaza-bicyclo[3.2.1]octane-8-carbon-yl)-1H-imidazole-2-carbonitrile], the half-life at 0.5 μM is above 10 min.
Same read-out and setting: to `N#Cc1c(N)sc2c(F)ccc(-c3ncc4c(N5CC6CCC(C5)N6C(=O)n5cncn5)nc(OC[C@@]56CCCN5C[C@H](F)C6)nc4c3F)c12` [Compound A206, 4-(4-(8-(1H-1,2,4-triazole-1-carbonyl)-3,8-diazabicyclo-[3.2.1]octan-3-yl)-8-fluoro-2-(((2R,7aS)-2-fluorotetrahydro-1H-pyrrolizin-7a(5H)-yl)meth-oxy)pyrido[4,3-d]pyrimidin-7-yl)-2-amino-7-fluorobenzo[b]-thiophene-3-carbonitrile] belongs above 10 min; to `N#Cc1c(N)sc2c(F)ccc(-c3c(Cl)cc4c(N5CC6CCC(C5)N6C(=O)Nc5ncccn5)nc(OC[C@@]56CCCN5C[C@H](F)C6)nc4c3F)c12` [Compound A215, 3-(7-(2-amino-3-cyano-7-fluorobenzo[b]thiophen-4-yl)-6-chloro-8-fluoro-2-(((2R,7aS)-2-fluorotetrahydro-1H-pyrrolizin-7a(5H)-yl)methoxy)quinazolin-4-yl)-N-(pyrimidin-2-yl)-3,8-diazabicyclo[3.2.1]octane-8-carboxamide], above 10 min.
The same measure, in the same setting: the same measure for `N#Cc1c(N)sc2c(F)ccc(-c3c(Cl)cc4c(N5CC6CCC(C5)N6C(=O)n5ccnc5C#N)nc(OC[C@@]56CCCN5C[C@H](F)C6)nc4c3F)c12` [Compound A220, 1-(3-(7-(2-amino-3-cyano-7-fluorobenzo[b]thiophen-4-yl)-6-chloro-8-fluoro-2-(((2R,7aS)-2-fluorotetrahydro-1H-pyrrol-izin-7a(5H)-yl)methoxy)quin-azolin-4-yl)-3,8-diazabicyclo-[3.2.1]octane-8-carbonyl)-1H-imidazole-2-carbonitrile]: above 10 min; for `N#Cc1ccn(C(=O)N2C3CCC2CN(c2nc(OC[C@@]45CCCN4C[C@H](F)C5)nc4c(F)c(-c5ccc(F)c6sc(N)c(C#N)c56)c(Cl)cc24)C3)n1` [Compound A224, 1-(3-(7-(2-amino-3-cyano-7-fluorobenzo[b]thiophen-4-yl)-6-chloro-8-fluoro-2-(((2R,7aS)-2-fluorotetrahydro-1H-pyrrolizin-7a(5H)-yl)methoxy)quinazolin-4-yl)-3,8-diazabicyclo[3.2.1]-octane-8-carbonyl)-1H-pyrazole-3-carbonitrile]: above 10 min.
`C#Cc1c(F)ccc2cc(O)cc(-c3ncc4c(N5C6COCC5CN(C(=O)n5cc(C#N)cn5)C6)nc(OC[C@@]56CCCN5C[C@H](F)C6)nc4c3F)c12` [Compound A226, 1-(9-(7-(8-ethynyl-7-fluoro-3-hydroxynaphthalen-1-yl)-8-fluoro-2-(((2R,7aS)-2-fluoro-tetrahydro-1H-pyrrolizin-7a(5H)-yl)methoxy)pyrido[4,3-d]pyrimidin-4-yl)-3-oxa-7,9-diazabicyclo[3.3.1]nonane-7-carbonyl)-1H-pyrazole-4-carbo-nitrile] came in with a half-life at 0.5 μM above 10 min.
The same measure, in the same setting: the same measure for `C#Cc1c(F)ccc2cc(O)cc(-c3ncc4c(N5CC6CCC(C5)N6C(=O)n5cncn5)nc(OC[C@@]56CCCN5C[C@H](F)C6)nc4c3F)c12` [Compound A234, (3-(7-(8-ethynyl-7-fluoro-3-hydroxynaphthalen-1-yl)-8-fluoro-2-(((2R,7aS)-2-fluoro-tetrahydro-1H-pyrrolizin-7a(5H)-yl)methoxy)pyrido[4,3-d]pyrimidin-4-yl)-3,8-diaza-bicyclo[3.2.1]octan-8-yl)(1H-1,2,4-triazol-1-yl)methanone]: above 10 min.
The same measure, in the same setting: the same measure for `N#Cc1cnn(C(=O)N2CC3COCC(C2)N3c2nc(OC[C@@]34CCCN3C[C@H](F)C4)nc3c(F)c(-c4ccc(F)c5sc(N)c(C#N)c45)c(Cl)cc23)c1` [Compound A249, 1-(9-(7-(2-amino-3-cyano-7-fluorobenzo[b]thiophen-4-yl)-6-chloro-8-fluoro-2-(((2R,7aS)-2-fluorotetrahydro-1H-pyrrolizin-7a(5H)-yl)methoxy)quinazolin-4-yl)-3-oxa-7,9-diazabicyclo-[3.3.1]nonane-7-carbonyl)-1H-pyrazole-4-carbonitrile]: above 10 min; for `N#Cc1cnn(C(=O)N2C3CCC2CN(c2nc(OC[C@@]45CCCN4C[C@H](F)C5)nc4c(F)c(-c5ccc(F)c6sc(N)nc56)c(Cl)cc24)C3)c1` [Compound A253, 1-(3-(7-(2-amino-7-fluorobenzo-[d]thiazol-4-yl)-6-chloro-8-fluoro-2-(((2R,7aS)-2-fluoro-tetrahydro-1H-pyrrolizin-7a(5H)-yl)methoxy)quinazolin-4-yl)-3,8-diazabicyclo[3.2.1]-octane-8-carbonyl)-1H-pyrazole-4-carbonitrile]: above 10 min; for `N#Cc1c(N)sc2c(F)ccc(-c3c(Cl)cc4c(N5CC6CCC(C5)N6C(=O)n5cncn5)nc(OC[C@@]56CCCN5C[C@H](F)C6)nc4c3F)c12` [Compound A260, 4-(4-(8-(1H-1,2,4-triazole-1-carbonyl)-3,8-diazabicyclo-[3.2.1]octan-3-yl)-6-chloro-8-fluoro-2-(((2R,7aS)-2-fluoro-tetrahydro-1H-pyrrolizin-7a(5H)-yl)methoxy)quinazolin-7-yl)-2-amino-7-fluorobenzo-[b]thiophene-3-carbonitrile]: above 10 min.
Same read-out and setting: the same measure for `C#Cc1c(F)ccc2cc(O)cc(-c3ccc4c(N5CC6CCC(C5)N6C(=O)n5cncn5)nc(OC[C@@]56CCCN5C[C@H](F)C6)nc4c3F)c12` [Compound A281, (3-(7-(8-ethynyl-7-fluoro-3-hydroxynaphthalen-1-yl)-8-fluoro-2-(((2R,7aS)-2-fluoro-tetrahydro-1H-pyrrolizin-7a(5H)-yl)methoxy)quinazolin-4-yl)-3,8-diazabicyclo[3.2.1]-octan-8-yl)(1H-1,2,4-triazol-1-yl)methanone]: above 10 min.

In another data set the target is T1, KRAS G12S 1-169 (His-tagged, GDP-loaded) (Homo sapiens, UniProt P01116, G12S).
T1 construct: His -tagged GDP-loaded G12S 1-169; made in house; host or cells: E. coli, e.g. BL21 (DE3)
T1 sequence (P01116 1-169 isoform P01116-2 G12S): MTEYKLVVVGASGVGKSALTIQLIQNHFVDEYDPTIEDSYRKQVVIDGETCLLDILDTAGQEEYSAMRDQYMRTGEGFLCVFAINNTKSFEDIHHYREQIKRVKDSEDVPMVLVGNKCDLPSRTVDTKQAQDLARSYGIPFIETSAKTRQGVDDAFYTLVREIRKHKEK
As to the kind of experiment: Covalent modification of KRAS protein by intact-protein LC-MS. The format is binding. To be noted: 24-hour treatment. The essentials:
(§1)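 Percent modification is derived from deconvoluted intact-protein LC-ESI-MS peak intensities of adducted versus unmodified KRAS. GDP-loaded His-tagged KRAS 1-169 (~2 μM, HEPES buffer at physiological conditions) was exposed to compound for 24 hrs at room temperature, then quenched with formic acid before C4 reversed-phase separation.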
On to `N#Cc1cn(C(=O)N2C3CCC2CN(c2nc(OC[C@@]45CCCN4C[C@H](F)C5)nc4c(F)c(-c5ccc(F)c6sc(N)nc56)c(Cl)cc24)C3)cn1` [Compound A123, 1-(3-(7-(2-amino-7-fluorobenzo-[d]thiazol-4-yl)-6-chloro-8-fluoro-2-(((2R,7aS)-2-fluoro-tetrahydro-1H-pyrrolizin-7a(5H)-yl)methoxy)quinazolin-4-yl)-3,8-diazabicyclo[3.2.1]-octane-8-carbonyl)-1H-imid-azole-4-carbonitrile], for which the “K-Ras12S engagement after 24-hour treatment” value was “++ (++: indicates between 1% to 20% labelling)”.

The same data set, now with this note: KRAS G12S, 24 hr.
On to `N#Cc1cn(C(=O)N2C3CCC2CN(c2nc(OC[C@@]45CCCN4C[C@H](F)C5)nc4c(F)c(-c5ccc(F)c6sc(N)nc56)c(Cl)cc24)C3)cn1` [Compound A123, 1-(3-(7-(2-amino-7-fluorobenzo-[d]thiazol-4-yl)-6-chloro-8-fluoro-2-(((2R,7aS)-2-fluoro-tetrahydro-1H-pyrrolizin-7a(5H)-yl)methoxy)quinazolin-4-yl)-3,8-diazabicyclo[3.2.1]-octane-8-carbonyl)-1H-imid-azole-4-carbonitrile], for which the “% G12S Modification at 24 hr.” value is “++ (++ indicates between about 1%-20% labelling)”.

A further data set has as its target T2, KRAS G12D 1-169 (His-tagged, GDP-loaded) (Homo sapiens, UniProt P01116, G12D).
T2 construct: His -tagged GDP-loaded G12D 1-169; made in house; host or cells: E. coli, e.g. BL21 (DE3)
The data set is described as above. It counts as binding. To be noted: comparable or same conditions as K-Ras G12S. The essentials:
as §1
As to `N#Cc1c(N)sc2c(F)ccc(-c3ncc4c(N5CC6CCC(C5)N6C(=O)n5ccnc5C#N)nc(OC[C@@]56CCCN5C[C@H](F)C6)nc4c3F)c12` [Compound A165, 1-(3-(7-(2-amino-3-cyano-7-fluorobenzo[b]thiophen-4-yl)-8-fluoro-2-(((2R,7aS)-2-fluoro-tetrahydro-1H-pyrrolizin-7a(5H)-yl)methoxy)pyrido[4,3-d]pyrimidin-4-yl)-3,8-diaza-bicyclo[3.2.1]octane-8-carbon-yl)-1H-imidazole-2-carbonitrile], the “covalent labeling of K-Ras G12D” value is listed as “essentially no detectable labeling”.
